Data: patent US8535689B2, “Identification of bacterial autoinducer and use in treating bacterial pathogenicity” (priority 2007, dated 2013)
Entries after “also recorded” stand apart in the source; their conditions may differ.

Columns and labels:
[1] = tested on: CAI-1 reporter strain MM920 (V. cholerae El Tor C6706str ΔcqsA ΔluxQ/pBB1 (luxCDABE from V. harveyi)); assay: Bioluminescence assay in V. cholerae CAI-1 reporter strain MM920; format: cell-based, Vibrio cholerae; conditions: for bioluminescence as a percentage of the bioluminescence activity of the V. cholerae CAI-1 autoinducer: reporter strain MM920, reference (S)-3-hydroxytridecan-4-one (CAI-1), FIG. 13; for activation of the V. cholerae quorum sensing circuit: to different degrees, pattern C13(5)>C13(R)>C12(S)≈C12(R)>C11(S)>C11(R); for activation of the V. cholerae quorum sensing circuit / fold greater biological activity than the molecule one carbon shorter: FIG. 3; for fold greater biological activity than the molecule one carbon shorter: side chain length comparison
Description: CAI-1 Purification from E. coli. V. cholerae cqsA (VCA0523) was cloned into pTrc99A and transformed into E. coli strain DH5α. The recombinant strain was grown at room temperature with aeration in 2.4 L of M9 medium supplemented with glucose (4 g/L), leucine (0.5 g/L), and ampicillin (0.1 g/L). cqsA expression was induced for 16 h with 0.5 mM IPTG. Following centrifugation at 10,000×g and passage through a 0.22 μm filter, the cell-free culture fluid was mixed with 0.6 v dichloromethane (DCM) in a reparatory funnel. The organic phase was isolated, evaporated, and assayed for CAI-1 activity using the bioluminescent V. cholerae CAI-1 reporter strain MM920 (V. cholerae El Tor C67O6str ΔcqsA ΔluxQ/pBB1 (luxCDABE from V. harveyi)), as described in Miller et al. (2002). The extract was dissolved in DCM and further purified by passage through silica gel with 0.5 L of 7:3 DCM:methanol, followed by concentration via evaporation. 50-100 mg of the concentrate was dissolved in ˜1 mL DCM, injected onto a (2×25-cm) ethyl-pyridine HPLC column, and eluted using a gradient of increasing ethyl acetate in hexanes (0-80%) at 20 mL/min. Fractions were tested for CAI-1 activity; active fractions were pooled.
Bioluminescence Assays. When assaying column fractions for autoinducer activity, 5% of each fraction was evaporated and dissolved in a mixture of water:acetonitrile (2:1). This preparation was added at 2% volume to the CAI-1 reporter strain MM920 (V. cholerae El Tor C67O6str ΔcqsA ΔluxQ/pBB1 (luxCDABE from V. harveyi)) according to previously described methods, as described in Miller et al. (2002). Synthetic CAI-1 preparations were dissolved in DMSO and supplied at 0.5% total volume to MM920 at specified concentrations.
[…]. Bioluminescence measurements at varying concentrations of analogue (generally from […]) were measured using a Wallac EnVision 2103 Multilabel Reader (Perkin Elmer, Waltham, Mass.).

[2] = tested on: TcpA, a subunit of the toxin co-regulated pilus (TCP); assay: Western blot of TcpA production in V. cholerae strains treated with synthetic CAI-1; format: cell-based, Vibrio cholerae; conditions: ΔluxQ
Excerpt: Western Blot Analysis. […]. Anti-TcpA antibody and Anti-Rabbit IgG Horseradish Peroxidase Conjugate (Promega) were used with the SuperSignal West Pico Chemiluminescent Substrate (Pierce) system.
Results. A major goal of quorum-sensing research is to develop strategies to artificially manipulate quorum-sensing-controlled processes in bacteria. […]. Proc. Natl. Acad. Sci. USA 84, 2833-2837 (1987), hereby incorporated by reference into this application. […]. […]. Importantly, synthetic CAI-1 had no effect on TcpA production in a ΔluxQ, ΔcqsS strain, which cannot respond to either CAI-1 or AI-2 (FIG. 4b, bottom row). […]

[3] = CAI-1 thermal stability, read with the V. cholerae bioluminescence assay; format: physicochemical; conditions: pH 7 phosphate buffer, FIG. 6a
Description: CAI-1 stock in DMSO was diluted 1:128 into 10 mM potassium phosphate buffer at pH 7 to a final autoinducer concentration of 400 μM. Samples were incubated for specified lengths of time, chilled briefly on ice, and frozen in dry ice/ethanol. Samples were thawed, diluted 1:3 in the same phosphate buffer, and read with the V. cholerae bioluminescence assay. Diluted sample was added at 2.5% of reporter culture volume, for final concentrations of 3.3 μM CAI-1 and 250 μM potassium phosphate.

[4] = CAI-1 pH stability, read with the V. cholerae bioluminescence assay; format: physicochemical; conditions: pH 2, 4, 6, 7, 8, 10, 12 potassium phosphate buffer; 5, 20, 60 minutes or overnight; FIG. 6b
Description: CAI-1 stock in DMSO was diluted 1:128 into 100 mM potassium phosphate buffer at specified pH values to a final autoinducer concentration of 400 μM. Following incubation at room temperature for specified times, samples were neutralized with an equal volume of 100 mM potassium phosphate buffer (e.g. pH 10 buffer was added to pH 4 buffered autoinducer). Neutralized samples, now with 200 μM CAI-1, were chilled briefly on ice and frozen in dry ice/ethanol. Autoinducer samples were thawed, diluted 1:3 in 100 mM pH 7 potassium phosphate buffer, and read with the V. cholerae bioluminescence assay. Diluted sample was added at 5% of reporter culture volume, for final concentrations of 3.3 μM CAI-1 and 5 mM potassium phosphate.

[5] = tested on: E. coli KX1200 (MG1655 ΔluxS); assay: CAI-1 stability in culture with E. coli cells; format: in vitro ADME, Escherichia coli; conditions: E. coli ΔluxS in LB, 37° C. overnight, 10 μM CAI-1; FIG. 6d
Description: (§1) Early stationary phase E. coli KX1200 (MG1655 ΔluxS) and V. cholerae BH1575 (El Tor C6706str ΔluxS ΔcqsA) were diluted to OD 0.1 in LB medium. Along with sterile LB medium, they were shaken overnight at 37° C. with and without 10 μM CAI-1 supplementation. Culture and LB samples were centrifuged at 10,000×g, filtered with 0.22 μm filters, and read at 10% final culture volume using the V. cholerae CAI-1 reporter bioassay.

[6] = tested on: V. cholerae BH1575 (El Tor C6706str ΔluxS ΔcqsA); assay: CAI-1 stability in culture with V. cholerae cells; format: in vitro ADME, Vibrio cholerae; conditions: V. cholerae ΔluxS ΔcqsA in LB, 37° C. overnight, 10 μM CAI-1; FIG. 6d
Description: as §1

SMILES | bioluminescence as a percentage of the bioluminescence activity of the V. cholerae CAI-1 autoinducer [1] | activation of the V. cholerae quorum sensing circuit [1] | also measured
[2H]C([2H])(C)C(O)C(=O)CCCCCCCCC (stereo not drawn) [2,2-D2-3-hydroxytridecan-4-one] | equivalent activity to CAI-1 | – | –
CCCCCCCC(=O)[C@H](O)CC [C11(R), (R)-3-hydroxyundecan-4-one] | – | activated | –
CCCCCCCC(=O)[C@@H](O)CC [C11(S), (S)-3-hydroxyundecan-4-one] | – | activated | –
CCCCCCCCCC(=O)[C@@H](O)CC [CAI-1, (S)-3-hydroxytridecan-4-one] | 100% | activated | TcpA production ([2]; cqsA+ V. cholerae strain, FIG. 4b middle row): repress TcpA production; also recorded: decreased; TcpA production ([2]; ΔcqsA V. cholerae strain, CAI-1 at concentrations up to 10 μM, FIG. 4b top row): repress TcpA production; also recorded: substantially repressed; TcpA production ([2]; ΔcqsS V. cholerae strain, FIG. 4b bottom row): no effect; heat stability ([3]; high temperatures (up to 80° C.)): subject to degradation; heat stability ([3]; physiologically relevant temperatures, 5, 20, 60 minutes or overnight): heat stable; pH stability [4]: stable under a wide range of pH values; effect of cells on CAI-1 levels [5]: do not adversely affect CAI-1 levels; effect of cells on CAI-1 levels [6]: do not adversely affect CAI-1 levels
CCCCCCCCC(=O)[C@@H](O)CC [Compound 5, (S)-3-hydroxydodecan-4-one] | twenty | activated | –
CCCCCCCCC(=O)[C@H](O)CC [Compound 6, (R)-3-hydroxydodecan-4-one] | twenty | activated | –
CCCCCCCCCC(=O)[C@H](O)CC [Compound 7, (R)-3-hydroxytridecan-4-one] | forty | activated | –
CCCCCCCCCC(=O)C(=O)CC [Compound 10, tridecane-3,4-dione] | ten | – | bioluminescence as a percentage of the bioluminescence activity of the V. cholerae CAI-1 autoinducer ([1]; listed as tridecan-3,4-dione): 10%
CCCCCCCCCC(=O)C(N)CC.Cl (stereo not drawn) [Compound 22, 3-aminotridecan-4-one hydrochloride] | equivalent activity to CAI-1 | – | –
CCCCCCCCCC(=O)C(O)CC (stereo not drawn) [thirteen-carbon molecule, 3-hydroxytridecan-4-one] | – | – | fold greater biological activity than the molecule one carbon shorter [1]: 8 fold
CCCCCCCCC(=O)C(O)CC (stereo not drawn) [twelve-carbon molecule, 3-hydroxydodecan-4-one] | – | – | fold greater biological activity than the molecule one carbon shorter [1]: 8 fold
